Converted amounts (≈) assume the structure as drawn. Like-named read-outs stand apart in the source and are kept apart here.
Legend:
Vero cell = conditions: Table 8; 50% cytotoxicity against Vero cell without viral infection; 4320 min
[1] = test system: human immunodeficiency virus (HIV) LAV/BRU; conditions: CEM-F cells; drug amount reducing viral replication by 50%
Experimental: AZT was included as a reference compound. The methodology used in this assay is described below:
The cells and the virus were grown in LAV/CEM medium. The medium consists of RPMI 1640, supplemented with 1% L-glutamine, 100 U/ml of Penicillin, 100 μg/ml Streptomycin, 2 μg/ml Polybrene and 10% heat-inactivated fetal bovine serum (HyClone Labs). […] The virus was adapted to CEM cells, and infectious virus stocks were stored as cell-free supernatant fluids in 1 ml aliquots in liquid nitrogen. The titer of the stock was determined by an end point titration method using CEM cells in 96-well microtiter plates. The titration was done with ten replicates for each point, and the 50% tissue culture infective dose (TCID50) was calculated using the method of Reed and Muench (Amer. J. Hygiene, 27/3 (1938) 493-497).
The CEM cells (1.5×10^5 cells/ml) were placed in 96-well plates and incubated with virus for 45 minutes. After 45 minutes each compound was added in quadruplicate. At the end of the day, six supernatants were tested for presence of viral core protein p24gag in an antigen capture ELISA (Genetic Systems Company). The OD readings (absorbance at 450/630 nm) fall into three categories: Experimentals=values from wells containing cells, viral inoculum and drug; Controls=values from wells with cells and virus (100%); and Background=values from wells with viral inoculum alone. […]

HIV antigen = assay: Expression of HIV antigen in infected MT-4 cells by immunofluorescence; assay type: cell-based
Experimental: Expression of HIV antigen was examined by immunofluorescence. When MT-4 cells were infected with HIV, viral antigen positive cells increased with incubation time and all the cells became positive on day 6 after infection.

[2] = test system: Madin Darby canine kidney (MDCK) cell; assay: Drug-induced cytotoxicity against MDCK cells without viral infection (dye-uptake assay); conditions: Table 8; 50% cytotoxicity against MDCK cell without viral infection; 4320 min
[3] = test system: herpes simplex virus type 1 (HSV-1); assay: microbe, parasite or virus in culture; assay type: cell-based; conditions: for ID50 HSV-Vero cell: Table 8, 72 hours incubation, 50% inhibition of cytopathic effect
influenza virus A = assay: microbe, parasite or virus in culture; assay type: cell-based; conditions: 72 hours incubation, 50% inhibition of cytopathic effect; for ID50 Influenza virus-MDCK cell: Table 8; for IC50: unidentified influenza virus, MDCK, 72 h
uninfected CEM cells = conditions: human, 7200 min
Experimental: The cells and the virus were grown in LAV/CEM medium. The medium consists of RPMI 1640, supplemented with 1% L-glutamine, 100 U/ml of Penicillin, 100 μg/ml Streptomycin, 2 μg/ml Polybrene and 10% heat-inactivated fetal bovine serum (HyClone Labs).
The toxicities of the drugs were tested against uninfected CEM cells. The CEM cells were plated as described above, and culture for five days in the presence or absence of drugs. On day five 1 μCi/well of ^3 H-thymidine was added, and cells were harvested 3 hours later. The results are expressed as toxic dose 50 (TD50) and represent the amount of drug necessary to reduce the cell proliferation by 50% as measured through thymidine incorporation.

[4] = Solubility in water and organic solvents; assay type: physicochemical
[5] = test system: reverse transcriptase (RTase) derived from avian myeloblastosis virus (AMV); assay type: biochemical
[6] = Cellular toxicity in CEM-SS cells (XTT assay); assay type: cell-based; conditions: human
Text: CEM-SS cells were obtained from Owen Weislow at the National Cancer Institute.

[7] = test system: human immunodeficiency virus (LAVBRU strain); assay: Anti-HIV XTT assay in CEM-SS cells; assay type: cell-based; conditions: Human immunodeficiency virus 1, 144 h, six days post infection, read-out: ED50 (XTT assay)
Text: The antiviral effect is expressed as the concentration of compound which increases the number of viable cells in infected cultures to 50% that of the untreated, uninfected control cultures (ED50) The cellular toxicity is expressed as the concentration of compound which reduces the number of viable cells to 50% that of the untreated control (TD50).

in vitro = conditions: monkey, vero cells
[8] = Drug-induced cytotoxicity against MDCK cells without viral infection (dye-uptake assay); conditions: dog, mdck cells, TD50 Influenza virus-MDCK cell

Compound | TD50 HSV-Vero cell (Vero cell) [µg/mL] | ED50 (p24gag antigen capture assay) [1] [µg] | TD50 Influenza virus-MDCK cell [2] [µg/mL] | ID50 HSV-Vero cell [3] [µg/mL] | ID50 Influenza virus-MDCK cell (influenza virus A) [µg/mL] | TD50 (thymidine incorporation) (uninfected CEM cells) [µg] | Solubility in acetone [4] | Solubility in dimethylformamide and dimethyl sulfoxide [4] | Solubility in methanol [4] | Solubility in other organic solvents [4] | Solubility in water [4] | further results
C/C1=C\C=C\C2(C)C=C(CO[C@H]3O[C@H](CO)[C@H](O)[C@H](O)[C@H]3O)C(C)CC23OC(O)C(C3=O)C(O)/C=C/C2(C)C=C(C=O)C(C)CC23OC(O)C(C3=O)C(O)/C(C)=C/C=C/C2C=C(CO[C@H]3O[C@H](CO)[C@H](O)[C@H](O)[C@H]3O)C(C)CC23OC(O)C(C3=O)C(O)/C=C/C2(C)C=C(C=O)C(C)CC23OC(O)C(C3=O)C1O (stereo partly shown) | > 400 | 3.2 | 250 | 11 (≈ 7.3 µM) | 150 (≈ 99.5 µM) | > 100 | slightly soluble | soluble | slightly soluble | practically insoluble | soluble | HIV antigen positive cells (suppression) (HIV antigen; HIV-infected MT-4 cells cultured in the presence of compound): significantly suppressed; HIV antigen positive cells (HIV antigen; HIV-infected MT-4 cells, concentration higher than 50 μg/ml, FIG. 10): less than 1%; AMV reverse transcriptase % inhibition ([5]; 3 μg/ml): 96.9%; AMV reverse transcriptase activity, count ([5]; 3 μg/ml): 1,584 ± 1,292 cpm; AMV reverse transcriptase % inhibition ([5]; 6 μg/ml): 98.1%; AMV reverse transcriptase activity, count ([5]; 6 μg/ml): 976 ± 145 cpm; AMV reverse transcriptase % inhibition ([5]; 12.5 μg/ml): 98.2%; AMV reverse transcriptase activity, count ([5]; 12.5 μg/ml): 920 ± 271 cpm; AMV reverse transcriptase % inhibition ([5]; 25 μg/ml): 98.8%; AMV reverse transcriptase activity, count ([5]; 25 μg/ml): 621 ± 402 cpm; AMV reverse transcriptase % inhibition ([5]; 50 μg/ml): 99.5%; AMV reverse transcriptase activity, count ([5]; 50 μg/ml): 235 ± 73 cpm; AMV reverse transcriptase % inhibition ([5]; 100 μg/ml): 99.7%; AMV reverse transcriptase activity, count ([5]; 100 μg/ml): 159 ± 14 cpm; Inhibition of 1 unit of AMV RTase activity ([5]; concentrations higher than 3 μg/ml): more than 95%
C/C1=C\C=C\C2C=C(CO[C@H]3O[C@H](CO)[C@H](O)[C@H](O)[C@H]3O)C(C)CC23OC(O)C(C3=O)C(O)/C=C/C2(C)C=C(CO)C(C)CC23OC(O)C(C3=O)C(O)/C(C)=C/C=C/C2(C)C=C(CO[C@H]3O[C@H](CO)[C@H](O)[C@H](O)[C@H]3O)C(C)CC23OC(O)C(C3=O)C(O)/C=C/C2(C)C=C(C=O)C(C)CC23OC(O)C(C3=O)C1O (stereo partly shown) | > 200 | 2.5 | 150 | 11 (≈ 7.29 µM) | > 150 | > 100 | slightly soluble | soluble | slightly soluble | practically insoluble | soluble | –
Cc1cn([C@H]2C[C@H](N=[N+]=[N-])[C@@H](CO)O2)c(=O)[nH]c1=O [AZT] | – | – | – | – | – | 4.2 | – | – | – | – | – | CC50 at 144 h [6]: > 500 µg/mL; EC50 [7]: 0.005 µg/mL (≈ 0.0187 µM)
Nc1nc2c(ncn2COCCO)c(=O)[nH]1 [Acyclovir] | – | – | – | – | – | – | – | – | – | – | – | IC50 ([3]; Human alphaherpesvirus 1, Vero, 72 h, read-out: ID50 HSV-Vero cell): 0.09 µg/mL (≈ 0.4 µM); CC50 at 72 h (in vitro): > 100 µg/mL
NC(=O)c1ncn([C@@H]2O[C@H](CO)[C@@H](O)[C@H]2O)n1 [Ribavirin, reference compound] | – | – | – | – | – | – | – | – | – | – | – | CC50 at 72 h ([8]; Table 8, 50% cytotoxicity against MDCK cell without viral infection): > 200 µg/mL; CC50 at 72 h ([8]; Table 10, 50% cytotoxicity against MDCK cells without viral infection): > 100 µg/mL; IC50 (influenza virus A; read-out: ID50 Influenza virus-MDCK cell, Table 8): 15 µg/mL (≈ 61.4 µM); IC50 (influenza virus A; read-out: ID50 Influenza virus-MDCK cell, Table 10): 9.5 µg/mL (≈ 38.9 µM)
